Data as given in ChEMBL document CHEMBL1201862, “PubChem BioAssay data set” (2004).
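The compound was tested at five concentrations on cells cultured in 96-well plates, with a 48-hour exposure period. GI50 marks 50% less growth.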 Calls of active or inactive are those of the source. Cut-off read from the data, not from the text of the source: active = GI50 up to about 1.1 µM and inactive = higher.

Experiments:
Assay in all cases: inhibition of tumour cell growth, NCI panel, 48 h
A498 = test system: A498
A549 = test system: A549
ACHN = test system: ACHN
COLO 205 = test system: COLO 205
HCT-116 = test system: HCT-116
HOP-62 = test system: HOP-62
HT-29 = test system: HT-29
IGROV-1 = test system: IGROV-1
MOLT-4 = test system: MOLT-4
OVCAR-3 = test system: OVCAR-3
OVCAR-4 = test system: OVCAR-4
SK-MEL-28 = test system: SK-MEL-28
SK-MEL-2 = test system: SK-MEL-2
SK-OV-3 = test system: SK-OV-3
SNB-75 = test system: SNB-75
U-251 = test system: U-251
UACC-257 = test system: UACC-257
UO-31 = test system: UO-31
DU-145 = test system: DU-145
PC-3 = test system: PC-3

Measured: GI50

Cc1ccc(/C=C/C(=O)C(C)(C)CN2CCCCC2)cc1
inactive: A498 6.24 µM | A549 5.68 µM | ACHN 11.2 µM | COLO 205 3.66 µM | HCT-116 10.5 µM | HOP-62 15.7 µM | HT-29 3.24 µM | IGROV-1 11.4 µM | MOLT-4 2.47 µM | OVCAR-3 2.81 µM | OVCAR-4 10.1 µM | SK-MEL-28 16.4 µM | SK-MEL-2 10.7 µM | SK-OV-3 11 µM | SNB-75 5.37 µM | U-251 13.7 µM | UACC-257 7.76 µM | UO-31 10.3 µM

CC1(C)C[C@H](O)[C@H](O)[C@]23C(=O)O[C@H](O)[C@H]2C(C=O)=CC[C@@H]13
inactive: A549 > 100 µM | ACHN > 100 µM | COLO 205 > 100 µM | DU-145 > 100 µM | HCT-116 > 100 µM | HOP-62 > 100 µM | HT-29 > 100 µM | IGROV-1 > 100 µM | MOLT-4 > 100 µM | OVCAR-3 > 100 µM | PC-3 > 100 µM | SK-MEL-28 > 100 µM | SNB-75 > 100 µM | U-251 96.2 µM | UACC-257 > 100 µM | UO-31 > 100 µM

CCOCN1COCN(C)C1=O
inactive: A498 > 100 µM | A549 > 100 µM | ACHN > 100 µM | COLO 205 > 100 µM | HCT-116 > 100 µM | HOP-62 > 100 µM | HT-29 > 100 µM | IGROV-1 > 100 µM | OVCAR-3 > 100 µM | OVCAR-4 > 100 µM | SK-MEL-28 > 100 µM | SK-MEL-2 > 100 µM | SK-OV-3 > 100 µM | SNB-75 > 100 µM | U-251 > 100 µM | UACC-257 > 100 µM | UO-31 > 100 µM

COC(=O)/C(=N\NC(=O)c1ccccc1O)C(C#N)c1ccccc1 (stereo not drawn)
inactive: A498 > 25.9 µM | A549 16.6 µM | ACHN 19.7 µM | COLO 205 > 50 µM | HCT-116 17.3 µM | HOP-62 20.7 µM | HT-29 > 50 µM | IGROV-1 19.5 µM | MOLT-4 22.3 µM | OVCAR-3 16.6 µM | OVCAR-4 > 43.2 µM | SK-MEL-28 > 50 µM | SK-MEL-2 > 50 µM | SK-OV-3 > 45.2 µM | SNB-75 22.5 µM | U-251 32.1 µM | UACC-257 25.9 µM | UO-31 12.9 µM

CN(C)CCNC(=O)c1ccc2ccc3cccnc3c2n1
inactive: A498 14.3 µM | A549 12.1 µM | ACHN 7.45 µM | COLO 205 8.24 µM | HCT-116 4.02 µM | HOP-62 19.2 µM | HT-29 9.14 µM | IGROV-1 25.7 µM | MOLT-4 3.44 µM | OVCAR-3 24.7 µM | OVCAR-4 14.5 µM | SK-MEL-28 27.9 µM | SK-MEL-2 15.2 µM | SK-OV-3 19.5 µM | SNB-75 16 µM | U-251 16.3 µM | UACC-257 15.3 µM | UO-31 12.2 µM

COc1ccc(/C=C/c2cc(OC)c(OC)c(OC)c2)cc1
inactive: A498 3.4 µM | A549 7.55 µM | ACHN 5.98 µM | COLO 205 3.14 µM | HCT-116 2.86 µM | HOP-62 3.48 µM | HT-29 3.2 µM | IGROV-1 11 µM | MOLT-4 2.21 µM | OVCAR-3 3.26 µM | OVCAR-4 41.5 µM | SK-MEL-28 18.7 µM | SK-MEL-2 2.36 µM | SK-OV-3 8.59 µM | SNB-75 3.43 µM | U-251 2.61 µM | UACC-257 > 100 µM | UO-31 4.68 µM

Cc1ccc(NC(=O)C(=O)Cc2cc[n+]([O-])cc2)cc1
inactive: A498 > 100 µM | A549 > 100 µM | ACHN > 100 µM | COLO 205 > 100 µM | HCT-116 > 100 µM | HOP-62 > 100 µM | HT-29 > 100 µM | IGROV-1 > 100 µM | MOLT-4 > 100 µM | OVCAR-3 > 100 µM | OVCAR-4 > 100 µM | SK-MEL-28 > 100 µM | SK-MEL-2 > 100 µM | SK-OV-3 > 100 µM | SNB-75 > 100 µM | U-251 > 100 µM | UACC-257 > 100 µM | UO-31 > 100 µM
